In one series the target is T1, CYP 2C9 (Homo sapiens, UniProt P11712).
T1 construct: from tissue; host or cells: human liver microsomes
Kind of series: CYP inhibition in human liver microsomes, 2C9. The class given is in vitro ADME. The note with it: pH 7.4, @ 10 μM concn. A digest of the protocol: (§1)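 Test compounds at […] and 10 μM were incubated in duplicate with human liver microsomes, probe substrate and 1 mM NADPH in 100 mM phosphate buffer pH 7.4 at 37° C. Reactions were stopped with acetonitrile containing internal standard, and the marker-reaction metabolite was quantified by LC-MS/MS.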

Series [1] addresses T2, recombinant purified human BTK (Homo sapiens, UniProt Q06187).
T2 construct: purchased SignalChem, USA
Kind of series: In vitro BTK kinase assay on ADP Glo platform. To be noted: 2 hr room temperature, read-out: In-vitro BTK inhibitory activity: IC50. Type of series: biochemical. A digest of the protocol: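 Recombinant human BTK (3 ng/reaction) with compound dilutions in Tris pH 7.5, MgCl2/MnCl2, BSA, DTT; started with 50 µM ATP (final) and polyGln4Tyr1 substrate, 2 h at room temperature. ADP formed detected by ADP-Glo luminescence; IC50 by nonlinear fit versus uninhibited enzyme as 100%.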
(In general: In ADP-Glo the light output rises with the ADP produced.)

The target in a further series is T3, CYP 3A4 (Homo sapiens, UniProt P08684).
T3 construct: from tissue; host or cells: human liver microsomes
The experiment in a line: CYP inhibition in human liver microsomes, 3A4. The class given is in vitro ADME. To be noted: pH 7.4, @ 10 μM concn. A digest of the protocol: as §1

A further series addresses T4, CYP 2C8 (Homo sapiens, UniProt P10632).
T4 construct: from tissue; host or cells: human liver microsomes
T4 sequence (P10632 1-490): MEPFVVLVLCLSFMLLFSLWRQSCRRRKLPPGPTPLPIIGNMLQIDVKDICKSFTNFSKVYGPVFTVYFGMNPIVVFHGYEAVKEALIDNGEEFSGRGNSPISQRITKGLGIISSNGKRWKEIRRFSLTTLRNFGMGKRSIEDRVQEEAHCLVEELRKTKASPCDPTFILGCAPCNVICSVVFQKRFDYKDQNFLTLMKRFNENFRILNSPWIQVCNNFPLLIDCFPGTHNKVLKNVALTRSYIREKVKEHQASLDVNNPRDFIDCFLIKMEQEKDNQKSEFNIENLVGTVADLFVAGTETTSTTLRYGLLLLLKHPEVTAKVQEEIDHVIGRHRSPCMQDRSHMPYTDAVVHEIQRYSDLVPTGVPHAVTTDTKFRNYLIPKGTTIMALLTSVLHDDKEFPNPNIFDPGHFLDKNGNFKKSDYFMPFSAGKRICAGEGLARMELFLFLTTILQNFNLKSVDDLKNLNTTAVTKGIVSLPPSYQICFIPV
The experiment in a line: CYP inhibition in human liver microsomes, 2C8. The class given is in vitro ADME. The note with it: pH 7.4, @ 10 μM concn. The method in brief: as §1

Another series deals with T5, CYP 2C19 (Homo sapiens, UniProt P33261).
T5 construct: from tissue; host or cells: human liver microsomes
Kind of series: CYP inhibition in human liver microsomes, 2C19. Type of series: in vitro ADME. The note with it: pH 7.4, @ 10 μM concn. The method in brief: as §1

The next series addresses T6, CYP 1A2 (Homo sapiens, UniProt P05177).
T6 construct: from tissue; host or cells: human liver microsomes
T6 sequence (P05177 1-516): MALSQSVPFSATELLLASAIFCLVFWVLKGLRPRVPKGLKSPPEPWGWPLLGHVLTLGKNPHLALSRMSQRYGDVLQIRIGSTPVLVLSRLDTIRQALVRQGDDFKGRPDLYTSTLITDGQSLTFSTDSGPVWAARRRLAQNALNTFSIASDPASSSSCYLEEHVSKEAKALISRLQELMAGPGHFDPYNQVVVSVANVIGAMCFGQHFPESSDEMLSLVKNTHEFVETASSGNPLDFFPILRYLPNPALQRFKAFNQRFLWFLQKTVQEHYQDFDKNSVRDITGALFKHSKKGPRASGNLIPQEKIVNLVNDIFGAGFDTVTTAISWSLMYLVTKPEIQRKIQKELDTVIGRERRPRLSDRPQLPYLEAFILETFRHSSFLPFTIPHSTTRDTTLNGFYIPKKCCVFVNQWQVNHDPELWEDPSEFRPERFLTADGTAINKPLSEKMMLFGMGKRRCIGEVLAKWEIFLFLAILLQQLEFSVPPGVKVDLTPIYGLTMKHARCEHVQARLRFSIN
Kind of series: CYP inhibition in human liver microsomes, 1A2. The class given is in vitro ADME. To be noted: pH 7.4, @ 10 μM concn. A digest of the protocol:
as §1

The next series deals with T7, CYP 2D6 (Homo sapiens, UniProt P10635).
T7 construct: from tissue; host or cells: human liver microsomes
Kind of series: CYP inhibition in human liver microsomes, 2D6. The class given is in vitro ADME. The note with it: pH 7.4, @ 10 μM concn. A digest of the protocol:
as §1

As usually defined, the inhibition is the percentage by which the read-out fell short of the control. One may read the IC50 as the concentration at which inhibition is half-maximal.

SMILES strings stand for the structures.

T2 sequence (Q06187 whole entry): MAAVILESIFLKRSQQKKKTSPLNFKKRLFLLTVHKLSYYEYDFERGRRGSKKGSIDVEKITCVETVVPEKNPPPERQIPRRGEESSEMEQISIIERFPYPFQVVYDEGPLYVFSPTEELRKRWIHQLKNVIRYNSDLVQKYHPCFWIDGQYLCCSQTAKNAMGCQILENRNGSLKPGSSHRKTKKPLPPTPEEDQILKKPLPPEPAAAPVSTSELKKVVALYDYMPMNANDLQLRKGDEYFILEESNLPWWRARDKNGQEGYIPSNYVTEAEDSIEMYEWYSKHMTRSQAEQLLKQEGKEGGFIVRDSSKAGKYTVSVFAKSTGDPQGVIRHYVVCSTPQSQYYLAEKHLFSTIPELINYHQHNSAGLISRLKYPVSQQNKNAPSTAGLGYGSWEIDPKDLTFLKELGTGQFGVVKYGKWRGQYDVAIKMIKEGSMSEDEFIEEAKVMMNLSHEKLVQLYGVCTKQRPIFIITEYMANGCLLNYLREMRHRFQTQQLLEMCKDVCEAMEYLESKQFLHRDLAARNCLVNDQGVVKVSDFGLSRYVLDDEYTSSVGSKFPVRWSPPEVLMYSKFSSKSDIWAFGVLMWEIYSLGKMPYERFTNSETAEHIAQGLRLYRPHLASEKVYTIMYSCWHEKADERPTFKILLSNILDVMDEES
T3 sequence (P08684 whole entry): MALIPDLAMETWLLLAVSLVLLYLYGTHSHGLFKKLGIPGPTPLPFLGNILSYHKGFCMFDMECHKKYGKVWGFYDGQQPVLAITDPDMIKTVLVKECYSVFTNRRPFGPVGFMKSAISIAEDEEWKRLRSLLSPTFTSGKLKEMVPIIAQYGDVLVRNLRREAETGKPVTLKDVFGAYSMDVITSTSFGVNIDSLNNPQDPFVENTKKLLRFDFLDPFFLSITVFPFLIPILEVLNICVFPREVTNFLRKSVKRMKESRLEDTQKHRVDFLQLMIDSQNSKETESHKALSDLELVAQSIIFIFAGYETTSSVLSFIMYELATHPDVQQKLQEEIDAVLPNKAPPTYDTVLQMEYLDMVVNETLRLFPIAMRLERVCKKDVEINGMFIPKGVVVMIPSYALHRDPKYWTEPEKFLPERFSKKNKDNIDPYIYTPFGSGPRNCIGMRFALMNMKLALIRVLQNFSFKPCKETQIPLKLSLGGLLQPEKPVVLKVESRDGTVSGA
T7 sequence (P10635 whole entry): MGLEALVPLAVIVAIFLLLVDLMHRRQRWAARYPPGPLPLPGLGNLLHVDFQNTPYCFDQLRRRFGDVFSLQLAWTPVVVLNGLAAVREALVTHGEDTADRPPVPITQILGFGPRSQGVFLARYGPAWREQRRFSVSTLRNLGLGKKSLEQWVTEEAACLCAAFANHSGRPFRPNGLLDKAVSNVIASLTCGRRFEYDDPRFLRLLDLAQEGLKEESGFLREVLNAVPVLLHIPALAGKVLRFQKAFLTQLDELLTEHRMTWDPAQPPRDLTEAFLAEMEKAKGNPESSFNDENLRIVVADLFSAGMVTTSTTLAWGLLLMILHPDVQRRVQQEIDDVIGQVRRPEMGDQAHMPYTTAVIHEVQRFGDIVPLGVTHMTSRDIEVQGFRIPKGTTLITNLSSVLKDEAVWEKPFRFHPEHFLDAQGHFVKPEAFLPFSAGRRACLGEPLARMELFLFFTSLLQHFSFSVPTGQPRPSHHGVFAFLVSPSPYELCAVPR
T1 sequence (P11712 whole entry): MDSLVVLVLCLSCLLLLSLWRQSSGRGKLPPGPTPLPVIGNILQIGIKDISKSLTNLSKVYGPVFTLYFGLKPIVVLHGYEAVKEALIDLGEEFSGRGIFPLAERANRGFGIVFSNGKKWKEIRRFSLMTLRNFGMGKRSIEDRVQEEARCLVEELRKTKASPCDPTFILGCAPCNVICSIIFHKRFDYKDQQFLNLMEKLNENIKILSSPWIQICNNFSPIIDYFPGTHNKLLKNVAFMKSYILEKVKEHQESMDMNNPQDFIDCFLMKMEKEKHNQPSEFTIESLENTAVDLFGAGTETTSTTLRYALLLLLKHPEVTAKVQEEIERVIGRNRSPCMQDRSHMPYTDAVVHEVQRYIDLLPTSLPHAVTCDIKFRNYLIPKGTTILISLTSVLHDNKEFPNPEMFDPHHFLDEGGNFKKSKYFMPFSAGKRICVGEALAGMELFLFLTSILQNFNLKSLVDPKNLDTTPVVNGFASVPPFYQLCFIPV
T5 sequence (P33261 whole entry): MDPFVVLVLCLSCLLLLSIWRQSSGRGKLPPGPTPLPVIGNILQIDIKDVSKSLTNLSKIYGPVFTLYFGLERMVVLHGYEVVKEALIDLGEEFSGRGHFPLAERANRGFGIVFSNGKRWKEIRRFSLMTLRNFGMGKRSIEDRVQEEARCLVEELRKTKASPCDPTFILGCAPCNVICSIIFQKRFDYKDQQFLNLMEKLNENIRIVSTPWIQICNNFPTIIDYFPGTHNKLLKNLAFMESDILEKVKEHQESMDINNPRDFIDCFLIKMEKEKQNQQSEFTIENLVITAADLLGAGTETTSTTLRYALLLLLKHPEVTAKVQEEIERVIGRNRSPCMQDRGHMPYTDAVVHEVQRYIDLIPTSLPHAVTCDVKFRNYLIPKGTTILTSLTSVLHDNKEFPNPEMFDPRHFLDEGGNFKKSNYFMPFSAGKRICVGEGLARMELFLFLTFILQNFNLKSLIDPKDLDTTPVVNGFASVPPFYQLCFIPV

Regarding `N#C/C(=C\C1CC1)C(=O)N1CC2CC(n3nc(-c4ccc(Oc5ccccc5)cc4)c4c(N)ncnc43)CC2C1` (stereo not drawn) [Compound 28, (E)-2-(5-(4-amino-3-(4-phenoxyphenyl)-1H-pyrazolo[3,4-d]pyrimidin-1-yl)octahydrocyclopenta[c]pyrrole-2-carbonyl)-3-cyclopropylacrylonitrile], the inhibition at 10 μM against CYP 2C9 is greater than 50%; against CYP 3A4, greater than 50%; on CYP 2C8, less than 50%; against CYP 2C19, less than 50%; at CYP 1A2, less than 50%; at CYP 2D6, less than 50%. Moreover, the IC50 in series [1] was found to be 0.016 µM.
Consider `C=CC(=O)N1CC2CC(n3nc(-c4ccc5sccc5c4)c4c(N)ncnc43)CC2C1` (stereo not drawn) [Compound 6, 1-(5-(4-amino-3-(benzo[b]thiophen-5-yl)-1H-pyrazolo[3,4-d]pyrimidin-1-yl)hexahydrocyclopenta[c]pyrrol-2(1H)-yl)prop-2-en-1-one], for which the inhibition at 10 μM against CYP 2C9, on CYP 3A4, at CYP 2C8, on CYP 2C19, at CYP 1A2 and at CYP 2D6 was less than 50% each time. Also, the IC50 in series [1] was found to be 0.0017 µM.
As to `Cc1ccnc(N(C)C(=O)c2ccc(-c3nn(C4CC5CN(C(=O)/C=C/CN(C)C)CC5C4)c4ncnc(N)c34)cc2)c1` (stereo not drawn) [Compound 55, (E)-4-(4-amino-1-(2-(4-(dimethylamino)but-2-enoyl)octahydrocyclopenta [c]pyrrol-5-yl)-1H-pyrazolo[3,4-d]pyrimidin-3-yl)-N-methyl-N-(4-methylpyridin-2-yl)benzamide], the inhibition at 10 μM on CYP 2C9 is greater than 50%; against CYP 3A4, greater than 50%; against CYP 2C8, greater than 50%; against CYP 2C19, greater than 50%; on CYP 1A2 it was less than 50%; against CYP 2D6, less than 50%. In addition, in series [1], the IC50 came to 0.08 µM.
In the case of `C=CC(=O)N1CC2CC(n3nc(-c4ccc5c(c4)OC(F)(F)O5)c4c(N)ncnc43)CC2C1` (stereo not drawn) [Compound 36, 1-(5-(4-amino-3-(2,2-difluorobenzo[d] [1,3]dioxol-5-yl)-1H-pyrazolo [3,4-d]pyrimidin-1-yl)hexahydrocyclopenta[c]pyrrol-2(1H)-yl)prop-2-en-1-one], the inhibition at 10 μM against CYP 2C9, against CYP 3A4, on CYP 2C8, on CYP 2C19, on CYP 1A2 and at CYP 2D6 was less than 50% throughout. Besides, the IC50 in series [1] stood at 0.0011 µM.
In the case of `C=CC(=O)N1CC2CC(n3nc(-c4ccc(Oc5cccnc5)cc4)c4c(N)ncnc43)CC2C1` (stereo not drawn) [Compound 52, 1-(5-(4-amino-3-(4-(pyridin-3-yloxy)phenyl)-1H-pyrazolo[3,4-d]pyrimidin-1-yl)hexahydrocyclopenta[c]pyrrol-2(1H)-yl)prop-2-en-1-one], the inhibition at 10 μM is less than 50% against CYP 2C9; greater than 50% at CYP 3A4; less than 50% at CYP 2C8; greater than 50% on CYP 2C19; greater than 50% against CYP 1A2; less than 50% against CYP 2D6. Also, in series [1], the IC50 was 0.162 µM.
As to `C=CC(=O)N1CC2CC(n3nc(-c4ccc(-c5cnn(C)c5)cc4)c4c(N)ncnc43)CC2C1` (stereo not drawn) [Compound 21, 1-(5-(4-amino-3-(4-(1-methyl-1H-pyrazol-4-yl)phenyl)-1H-pyrazolo [3,4-d]pyrimidin-1-yl)hexahydrocyclopenta[c]pyrrol-2(1H)-yl)prop-2-en-1-one], the inhibition at 10 μM was less than 50% against CYP 2C9; less than 50% on CYP 3A4; less than 50% against CYP 2C8; less than 50% against CYP 2C19; greater than 50% against CYP 1A2; less than 50% against CYP 2D6. Further, the IC50 in series [1] was 0.05 µM.

(Values after patent US9840509B2, “Heterocyclic compounds” (CADILA HEALTHCARE LIMITED, priority 2014, dated 2017).)
